Assay results reported in patent publication US20060058359A1, “Compounds useful as pesticides” (priority 2002, published 2006).

Tests used:
[1] = tested on: Cotton Aphid (Aphis gossypii); assay: Testing with Cotton Aphid (squash cotyledon foliar spray assay); assay type: in vivo; conditions: foliar spray on squash, 3 days after application
From the text: Yellow crookneck squash, Cucurbita pepo, is planted in 3 inch pots and placed in a greenhouse. Plants are watered regularly for 5 to 7 days until they reach the first emergent leaf stage. Plants are then trimmed to a single cotyledon. The squash assay consists of four squash plants per treatment with each plant cotyledon considered a replicate. Four additional plants are used as a control treatment (receiving solvent blank application only). Twenty-four hours prior to application, a leaf section of heavily infested squash plant from the aphid colony is placed onto each cotyledon, allowing a mixed population of A. gossypii nymphs and adults to migrate and infest the test plants. The pre-infested squash cotyledons are sprayed on both the upper and lower surfaces using an airbrush sprayer set at 2 psi. Formulation is an aqueous solution containing 5% solvent and 0.025% Tween 20 surfactant to yield concentrations of 50 ppm and 5 ppm of the test compound. Plants are sprayed to runoff. Tests are held in ambient laboratory temperatures for three days. At 3 days after application (DM) the number of live aphids are counted with the aid of a dissecting microscope. The number of live aphids in the treatment is compared to the number of live aphids in the solvent blank-treated controls and percent mortality is calculated.

[2] = tested on: Cat Flea (Cntenocephalides felis); assay: Testing with Cat Flea (treated media assay); assay type: in vivo; conditions: 0.1 μg/g rate in media, infested with eggs, adults counted after five weeks vs acetone only
Description: Media is prepared by mixing 1 part dried bovine blood, 4 parts ground dog food pellets, and 95 parts clean sand. Compounds are dissolved in acetone and further diluted in acetone to yield the required range of concentrations. The acetone solutions are applied to measured amounts of media in small dishes. Final concentrations are expressed as micrograms of compound per gram of media. After the acetone has dried, the treated media is dispensed into small glass vials and infested with 5 to 10 cat flea (Cntenocephalides felis) eggs. The vials are loosely capped and held under controlled conditions for five weeks. Activity is assessed based on the average number of adult cat fleas present in the treated vials compared to the average number of adult cat fleas in the media treated with acetone only.

Row | SMILES | percent mortality ([1]; 5 parts per million) [%] | percent mortality ([1]; 50 parts per million) [%] | control of cat fleas [2] [%]
1 | C/N=C(/C(=CN(C)C)[N+](=O)[O-])N(C)Cc1ccc(Cl)nc1 [Compound One] | 100 | 100 | 90
2 | C/N=C(/C(=CNc1ccccc1)[N+](=O)[O-])N(C)Cc1ccc(Cl)nc1 [Compound Three] | 100 | 100 | 38
